This assay can be described thus: Antagonist activity at Adenosine receptor subtype 2B in human RBC assessed as change in erythrocyte morphology incubated for 3 hrs with occasional gentle stirring for every 30 min measured for every 12 hrs by microscopic analysis.
With `O=C(CN1CCOC(Cn2cncn2)C1)Nc1cccnc1` (stereo not drawn), the EC50 (in general, the midpoint of the concentration-response curve) worked out at 17 nM. Still for that read-out and setting: the figure for `CCCc1cc(O)nc(SC(C)C(=O)Nc2cc(C)no2)n1` (stereo not drawn) is 23 nM; for `CC(C)c1noc(OCC(=O)NCc2ccc3c(c2)OCO3)n1` it is 35 nM. On the same count and under the same terms, the figure for `Cc1cc(NC(=O)CNc2ccc3c(c2)OC(F)(F)O3)on1` is 35 nM. With `Cc1ccc(N2CCN(C(=O)[C@H](C)Oc3ccc(-c4cc5c([nH]4)c(=O)n(C)c(=O)n5C)cc3)CC2)cc1`, the Ki (in general, the dissociation constant of the complex between target and ligand, obtained from inhibition or displacement) was 1.8 nM. Still for that read-out and setting: the figure for `C[C@H](Oc1ccc(-c2cc3c([nH]2)c(=O)n(C)c(=O)n3C)cc1)C(=O)Nc1ccc(Br)cc1` is 1.3 nM. `CC(OC(=O)c1nccnc1N)C(=O)NCc1ccc2c(c1)OCO2` (stereo not drawn): the EC50 amounted to 47 nM. Consider `CCCn1c(=O)n(C)c(=O)c2[nH]c(-c3ccc(O[C@@H](C)C(=O)N4CCN(c5nc6ccc(Cl)cc6s5)CC4)cc3)cc21`, for which the Ki is 1 nM.
